Earlier results in patent publication US20050147632A1, “Virally infected plants as a source of insect reppellants/attractents” (priority 2002, published 2005).

Tested on: neighboring plants
Conditions: Shulaev et al., Nature 385: 718-721, 1997

COC(=O)c1ccccc1O [methyl salicylate]
induction of plant pathogen resistance: capable of inducing plant pathogen resistance in neighboring plants
